Source: BindingDB's records for doi:10.1021/jm200004e (University of Louisiana At Monroe, 2011)
*1 amine or outer side, *2 acyl side, *3 side chain or, on linkers, in order; H or OH if unused. Where a SMILES comes first, the peptide text is derived from it. [ ]: non-standard residue; d: D form. X1 = O=C(CCc1cccc2c1oc1c(CCN[*:1])cccc12)[*:2]

Test: Inhibition of CD2 assessed as inhibition of CD2-CD58 protein-protein interaction mediated cell adhesion between CD58 expressing sheep red blood cells and CD2 expressing human Jurkat cells by E-rosettes assay

CC[C@H](C)[C@@H]1NC(=O)[C@H](Cc2ccc(O)cc2)NC(=O)[C@H](CC(=O)O)NC(=O)CCc2cccc3c2Oc2c(cccc2-3)CCNC(=O)[C@H](CC(=O)O)NC(=O)[C@H](CC(=O)O)NC(=O)[C@H](CCCCN)NC1=O (cyclo(DD[X1]DYIK))
IC50: 25.7 nM
